Literature values as cited in US20260183237A1, “NANOEMULSION WITHOUT PROPYLENE GLYCOL” (BIOFRONTERA, INC., priority 2023, published 2026).

SMILES: NCC(=O)CCC(=O)O [5-aminolevulinic acid]
- octanol-water partition coefficient (logP): around −3
